#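 Protocol summary: plate cells (96-well), add compound at 5 concentrations, incubate 48 h, interpolate endpoints linearly. At the GI50, growth is halved.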 The source made the active and inactive calls. Rule as the data show it: active = GI50 up to about 1.1 µM and inactive = higher.
# Tests used:
# Experiment in all cases: NCI tumour cell line growth inhibition, 48 h
# [1] = test system: NCI-H226
# [2] = test system: OVCAR-5
# [3] = test system: NCI-H23
# [4] = test system: UACC-257
# [5] = test system: DLD-1
# [6] = test system: HCC 2998
# [7] = test system: DMS-273
# [8] = test system: SN12C
# [9] = test system: TK-10
# [10] = test system: SK-MEL-2
# [11] = test system: NCI-H460
# [12] = test system: SW-620
# [13] = test system: SF-268
# [14] = test system: CCRF-CEM
# [15] = test system: HCT-116
# [16] = test system: OVCAR-8
# [17] = test system: Malme-3M
# [18] = test system: RXF 631
# [19] = test system: IGROV-1
# [20] = test system: HOP-18
# [21] = test system: LXFL 529
# [22] = test system: UACC-62
# [23] = test system: KM12
# [24] = test system: RPMI-8226
# [25] = test system: HCT-15
# [26] = test system: A498
# [27] = test system: SK-MEL-28
# [28] = test system: XF498
# [29] = test system: SNB-19
# [30] = test system: M19-MEL
# [31] = test system: SF-295
# [32] = test system: OVCAR-3
# [33] = test system: SNB-75
# [34] = test system: CAKI-1
# [35] = test system: RXF 393
# [36] = test system: HOP-92
# [37] = test system: 786-0
# [38] = test system: MOLT-4
# [39] = test system: DMS-114
# [40] = test system: U-251
# [41] = test system: SF-539
# [42] = test system: EKVX
# [43] = test system: KM-20L2
# [44] = test system: LOX IMVI
# [45] = test system: ACHN
# [46] = test system: HL-60
# [47] = test system: HT-29
# [48] = test system: OVCAR-4
# [49] = test system: SNB-78
# [50] = test system: SK-MEL-5
# [51] = test system: M14
# [52] = test system: K562
# [53] = test system: A549
# [54] = test system: UO-31
# [55] = test system: COLO 205
# [56] = test system: SK-OV-3
compound,measurement,setting,value
COc1ccccc1NC(=O)C1=C(C)NC(C)=C(C(=O)Nc2ccccc2OC)C1c1cccc2ccccc12,GI50,[1],50.7 µM (inactive)
same,GI50,[2],> 100 µM (inactive)
same,GI50,[3],21.7 µM (inactive)
same,GI50,[4],> 100 µM (inactive)
same,GI50,[5],38.7 µM (inactive)
same,GI50,[6],83.8 µM (inactive)
same,GI50,[7],80.9 µM (inactive)
same,GI50,[8],> 100 µM (inactive)
same,GI50,[9],> 100 µM (inactive)
same,GI50,[10],> 100 µM (inactive)
same,GI50,[11],20.1 µM (inactive)
same,GI50,[12],> 100 µM (inactive)
same,GI50,[13],29.4 µM (inactive)
same,GI50,[14],20.7 µM (inactive)
same,GI50,[15],23.8 µM (inactive)
same,GI50,[16],> 100 µM (inactive)
same,GI50,[17],38.6 µM (inactive)
same,GI50,[18],87.9 µM (inactive)
same,GI50,[19],> 100 µM (inactive)
same,GI50,[20],76.7 µM (inactive)
same,GI50,[21],28.1 µM (inactive)
same,GI50,[22],> 100 µM (inactive)
same,GI50,[23],37.8 µM (inactive)
same,GI50,[24],9.29 µM (inactive)
same,GI50,[25],28.4 µM
same,GI50,[26],33.9 µM (inactive)
same,GI50,[27],62.7 µM (inactive)
same,GI50,[28],45.3 µM (inactive)
same,GI50,[29],53 µM (inactive)
same,GI50,[30],90.4 µM (inactive)
same,GI50,[31],90.6 µM (inactive)
same,GI50,[32],64 µM (inactive)
same,GI50,[33],14.3 µM (inactive)
same,GI50,[34],68.1 µM (inactive)
same,GI50,[35],21.2 µM (inactive)
same,GI50,[36],1.38 µM (inactive)
same,GI50,[37],> 100 µM (inactive)
same,GI50,[38],10.6 µM (inactive)
same,GI50,[39],25.6 µM (inactive)
same,GI50,[40],> 100 µM (inactive)
same,GI50,[41],> 100 µM (inactive)
same,GI50,[42],> 100 µM (inactive)
same,GI50,[43],> 100 µM (inactive)
same,GI50,[44],> 100 µM (inactive)
same,GI50,[45],11.7 µM (inactive)
same,GI50,[46],29.9 µM (inactive)
same,GI50,[47],82.8 µM (inactive)
same,GI50,[48],2.77 µM (inactive)
same,GI50,[49],4.44 µM (inactive)
same,GI50,[50],34.4 µM (inactive)
same,GI50,[51],> 100 µM (inactive)
same,GI50,[52],13.3 µM (inactive)
same,GI50,[53],21.9 µM (inactive)
same,GI50,[54],13.7 µM (inactive)
same,GI50,[55],> 100 µM (inactive)
same,GI50,[56],> 100 µM (inactive)

# From ChEMBL document CHEMBL1201862, “PubChem BioAssay data set” (2004)
